# Assay results taken from ChEMBL document CHEMBL5260832, “Hepatoprotective natural triterpenoids” (Eur J Med Chem, 2018).
# pEC50, pIC50: −log10 of the molar value.
# Assays:
# Mus musculus [1] = assay: Hepatoprotective activity against D-GaIN/CCl4 induced liver injury mouse model assessed as reduction in GPT level at 1.0 microg/ml, iv relative to control; assay type: functional; set-up: scale not given: the % may be the effect or the level left; conditions: dose 1 µg/ml
# Hepatocyte [2] = assay: Hepatoprotective activity against D-GaIN-induced toxicity in mouse hepatocyte relative to control; assay type: functional, cell-based
# Mus musculus [3] = assay: Hepatoprotective activity in mouse model of D-GaIN/LPS-induced liver injury assessed as inhibition of sAST secretion at 100 mg/kg, po relative to control; assay type: functional
# Mus musculus [4] = assay: Hepatoprotective activity in mouse model of D-GaIN/LPS-induced liver injury assessed as inhibition of sALT level secretion at 100 mg/kg, po relative to control; assay type: functional
# Hepatocyte [5] = assay: Hepatoprotective activity against D-GaIN/TNFalpha -induced cell death in mouse hepatocyte assessed as inhibition at 50 uM relative to control; assay type: functional; set-up: scale not given: the % may be the effect or the level left
# Hepatocyte [6] = assay: Hepatoprotective activity against CCl4/GaIN-induced cytotoxicity in rat hepatocytes assessed as decrease in GPT level at 1.0 ug/mL relative to control; assay type: functional; set-up: scale not given: the % may be the effect or the level left; conditions: dose 1 µg/ml
# L02 [7] = assay: Protection against D-GalN-induced cell damage in human L02 cells […] assessed as reduction in cell viability […]; assay type: functional, cell-based
# Mus musculus [8] = species: Mus musculus; assay: Hepatoprotective activity against D-GaIN-induced liver injury mouse model assessed as cell death with increasing cell survival rates at 10 uM relative to control; assay type: functional
# [9] = Cytotoxicity against human HepG2 cells assessed as reduction in cell viability by SRB assay; assay type: toxicity, cell-based
# HepG2 = assay: Cytoprotective activity against t-BHP induced cell death in human HepG2 cells assessed as cell survival rate at 10 uM relative to control; assay type: functional
# Hepatocyte [10] = assay: Hepatoprotective activity against D-GaIN/TNFalpha-induced cell death in mouse hepatocyte at 100 uM relative to control; assay type: functional, cell-based; conditions: Mus musculus, Hepatocyte
# Hepatocyte [11] = assay: Hepatoprotective activity against D-GaIN/TNFalpha-induced cell death in mouse hepatocyte at 100 uM; assay type: functional, cell-based
# Hepatocyte [12] = assay: Hepatoprotective activity against D-GaIN/TNFalpha-induced cell death in mouse hepatocytes at 50 uM assessed as inhibition of cell death relative to control; assay type: functional; set-up: scale not given: the % may be the effect or the level left
# Hepatocyte [13] = assay: Hepatoprotective activity against CCL4-induced rat hepatocyte toxicity assessed as decrease in GOT level at 3.33 mg/mL preincubated for 30 mins followed by CCL4 addition and measured after 180 mins by colorimetric method; assay type: functional; conditions: time 210 min, 3.5 h
# Hepatocyte [14] = assay: Hepatoprotective activity against CCL4-induced rat hepatocyte toxicity assessed as decrease in GPT level at 3.33 mg/mL preincubated for 30 mins followed by CCL4 addition and measured after 180 mins by colorimetric method; assay type: functional; conditions: time 210 min, 3.5 h
# Hepatocyte [15] = assay: Hepatoprotective activity against CCL4-induced rat hepatocyte toxicity assessed as decrease in ALP level at 3.33 mg/mL preincubated for 30 mins followed by CCL4 addition and measured after 180 mins by colorimetric method; assay type: functional; conditions: time 210 min, 3.5 h
# L02 [16] = assay: Protection against D-GalN-induced toxicity in L02 cells […] assessed as reduction in cell growth relative to control; assay type: functional, Homo sapiens; set-up: scale not given: the % may be the effect or the level left
# L02 [17] = assay: Protection against D-GalN-induced toxicity in L02 cells […] assessed as reduction in cell growth at 6.25 microg/ml relative to control; assay type: functional, Homo sapiens; set-up: scale not given: the % may be the effect or the level left; conditions: dose 6.25 µg/ml
# Huh-7 = assay: Hepatoprotective activity against CCL4-induced mouse model in human Huh-7 cells assessed as decrease in ALT level at 100 ug/mL; assay type: functional; conditions: dose 100 µg/ml
# Mus musculus [18] = assay: Hepatoprotective activity against CCl4-induced liver injury mouse model assessed as reduction in ALT at 20 ug/mL, ip relative to control (reference value: 13.23 IU/L); assay type: functional; conditions: dose 20 µg/ml
# Mus musculus [19] = assay: Hepatoprotective activity against CCl4-induced liver injury mouse model assessed as reduction in AST at 20 ug/mL, ip relative to control (reference value: 9.27 IU/L); assay type: functional; conditions: dose 20 µg/ml
# Mus musculus [20] = assay: Hepatoprotective activity against CCl4-induced liver injury mouse model assessed as reduction in MDA level at 20 ug/mL, ip relative to control (reference value: 9.27 IU/L); assay type: functional; conditions: dose 20 µg/ml
# Mus musculus [21] = assay: Hepatoprotective activity against CCl4-induced liver injury mouse model assessed as increase in SOD level at 20 ug/mL, ip relative to control (reference value: 5.89 IU/L); assay type: functional; conditions: dose 20 µg/ml
# Rattus norvegicus = assay: Hepatoprotective activity in GaIN-induced rat model of liver injury assessed as reduction in ALT level at 4 mg/kg relative to control; assay type: functional; set-up: scale not given: the % may be the effect or the level left
# [22] = Hepatoprotective activity against D-Galactosamine-induced toxicity in rat WB-F344 cells assessed as cell survival rate at 10 uM relative to control; assay type: functional
# [23] = Hepatoprotective activity against D-GaIN - induced toxicity in rat WB-F344 cells assessed as inhibition of cell growth relative to control; assay type: functional; set-up: scale not given: the % may be the effect or the level left
structure (smiles),measurement,setting,value
CC1(C)C[C@H]2C3=C[C@@H](O)[C@@H]4[C@@]5(C)CCC(=O)C(C)(C)C5CC[C@@]4(C)[C@]3(C)CC[C@@]2(C(=O)O)CC1=O (some centres undefined),Activity,Mus musculus [1],24%
C[C@@H]1CC[C@]2(C(=O)O[C@@H]3O[C@H](CO)[C@@H](O)[C@H](O)[C@H]3O)CC[C@]3(C)C(=CC[C@@H]4[C@@]5(C)C[C@@H](O)[C@@H](O)C(C)(C)[C@@H]5CC[C@]43C)[C@@H]2[C@]1(C)O,pIC50,Hepatocyte [2],4.85
same,inhibition in vivo at 100 mg/kg,Mus musculus [3],59.7%
same,inhibition in vivo at 100 mg/kg,Mus musculus [4],57.2%
CC1(C)C[C@H]2C3=CC[C@@H]4[C@@]5(C)CCC(=O)C(C)(C)C5CC[C@@]4(C)[C@]3(C)CC[C@@]2(C(=O)O)CC1=O (some centres undefined),Activity,Mus musculus [1],43%
C=C(C)[C@@H]1CC[C@]2(C(=O)O[C@@H]3O[C@H](CO)[C@@H](O)[C@H](O)[C@H]3O)CC[C@]3(C)[C@H](CC[C@@H]4[C@@]5(C)C[C@@H](O)[C@H](O)[C@](C)(CO)[C@@H]5CC[C@]43C)[C@@H]12,Activity,Hepatocyte [5],40.9%
CC1(C)CC[C@]2(C(=O)O[C@@H]3O[C@H](CO)[C@@H](O)[C@H](O)[C@H]3O)CC[C@]3(C)C(=CC[C@@H]4[C@@]5(C)CC[C@H](O[C@@H]6O[C@H](C(=O)O)[C@@H](O)[C@H](O)[C@H]6O[C@@H]6O[C@H](CO)[C@@H](O)[C@H](O)[C@H]6O)C(C)(C)[C@@H]5CC[C@]43C)[C@@H]2C1 [GINSENOSIDE R0],Activity,Hepatocyte [6],42%
CC(=O)O[C@H]1[C@@H]2O[C@@]3(C(C)(C)O)CC[C@](C)(O3)C2[C@@]2(CO)CC[C@@]34C[C@@]35CC[C@H](O)C(C)(C)C5CC[C@H]4[C@]12C (some centres undefined),pEC50,L02 [7],4.25
CC(=O)O[C@H](C/C=C(/C)C(=O)O)[C@@H](C)[C@H]1CCC2(C)[C@@H]3CC[C@H]4C(C)(C)C(=O)CC[C@@]45C[C@@]35CC[C@]12C (some centres undefined),Activity,Mus musculus [8],30.8%
CC(=O)O[C@H]1[C@@H]2O[C@@]3(C(C)(C)O)CC[C@](C)(O3)C2[C@@]2(CO)CC[C@@]34C[C@@]35CC[C@H](O[C@@H]3OC[C@@H](O)[C@H](O)[C@H]3O)C(C)(C)C5CC[C@H]4[C@]12C (some centres undefined),pEC50,L02 [7],4.13
COc1cc([C@H]2Oc3cc([C@H]4Oc5cc(O)cc(O)c5C(=O)[C@@H]4O)ccc3O[C@@H]2CO)ccc1O [SILYBIN A],pEC50,[9],4.12
same,Activity,HepG2,52.5%
same,pIC50,Hepatocyte [10],4.52
same,pIC50,Hepatocyte [2],4.41
same,pIC50,Hepatocyte [11],4.47
same,Activity,Hepatocyte [12],61.2%
same,Activity,Hepatocyte [5],61.2%
CC(=O)O[C@H]1CC[C@]2(C)[C@H]3CC=C4[C@@H]5CC(C)(C)CC[C@]5(C(=O)O)CC[C@@]4(C)[C@]3(C)CC[C@H]2C1(C)C [ACETYL OLEANOLIC ACID],Activity,Hepatocyte [13],27.8 IU/L
same,Activity,Hepatocyte [14],17.5 IU/L
same,Activity,Hepatocyte [15],16.1 IU/L
CC(C)[C@]1(CO[C@@H]2O[C@H](CO)[C@@H](O)[C@H](O)[C@H]2O)CC[C@@H]([C@H]2[C@H](O)C[C@]3(C)[C@@H]2CC[C@@H]2[C@@]4(C)CC[C@H](O[C@@H]5O[C@H](CO)[C@@H](O)[C@H](O)[C@H]5O[C@@H]5O[C@H](CO)[C@@H](O)[C@H](O)[C@H]5O)C(C)(C)[C@@H]4CC[C@]23C)O1,Activity,L02 [16],28.2%
same,Activity,L02 [17],14.7%
CC1(C)CC[C@]2(CO)CC[C@]3(C)C(=CC[C@@H]4[C@@]5(C)CC[C@H](O)C(C)(C)[C@@H]5CC[C@]43C)[C@@H]2C1 [ERYTHRODIOL],Activity,Huh-7,40.2 U/ml
C[C@@H]1CC[C@]2(C(=O)O[C@@H]3O[C@H](CO)[C@@H](O)[C@H](O)[C@H]3O)CC[C@]3(C)C(=CC[C@@H]4[C@@]5(C)C[C@@H](O)[C@H](O)C(C)(C)[C@@H]5CC[C@]43C)[C@@H]2[C@]1(C)O,pIC50,Hepatocyte [2],4.45
same,inhibition in vivo at 100 mg/kg,Mus musculus [3],65.2%
same,inhibition in vivo at 100 mg/kg,Mus musculus [4],71.1%
same,pIC50,Hepatocyte [11],4.25
C[C@@H]1CC[C@]2(C(=O)O)CC[C@]3(C)C(=CC[C@@H]4[C@@]5(C)[C@H](O)[C@@H](O)[C@@H](O)C(C)(C)[C@@H]5CC[C@]43C)[C@@H]2[C@]1(C)O,Activity,Mus musculus [18],4.75 IU/L
same,Activity,Mus musculus [19],4.24 IU/L
same,Activity,Mus musculus [20],3.84 nmol/mL
same,Activity,Mus musculus [21],21.9 U/ml
COC(=O)[C@]12CC[C@@H](C)[C@H](C)[C@H]1C1=CC[C@@H]3[C@@]4(C)C[C@@H](OC(C)=O)C(=O)[C@@](C)(C=O)[C@@H]4CC[C@@]3(C)[C@]1(C)CC2,Activity,Rattus norvegicus,66.4%
C=C(C)[C@@H]1CC[C@]2(C(=O)O[C@@H]3O[C@H](CO)[C@@H](O)[C@H](O)[C@H]3O)CC[C@]3(C)[C@H](CC[C@@H]4[C@@]5(C)C[C@@H](O)[C@H](O)C(C)(C)[C@@H]5CC[C@]43C)[C@@H]12,Activity,Hepatocyte [5],37.6%
CC1=CC[C@H]([C@@H](C)[C@H]2CC[C@@]3(C)[C@@H]4CC[C@@H](C(C)(C)O)[C@@]5(CCC(=O)O)C[C@@]45CC[C@@]23C)OC1=O,Activity,Mus musculus [8],35.7%
CC1(C)CC[C@]2(C(=O)O[C@@H]3O[C@H](CO)[C@@H](O)[C@H](O)[C@H]3O)CC[C@]3(C)C(=CC[C@@H]4[C@@]5(C)CC[C@H](O[C@@H]6O[C@H](C(=O)O)[C@@H](O)[C@H](O)[C@H]6O[C@@H]6OC[C@H](O)[C@H](O)[C@H]6O)C(C)(C)[C@@H]5CC[C@]43C)[C@@H]2C1,Activity,Hepatocyte [6],28%
CO[C@@H]1C=C2[C@@H]3CC(C)(C)C(=O)C[C@]3(C(=O)O)CC[C@@]2(C)[C@]2(C)CCC3C(C)(C)C(=O)CC[C@]3(C)[C@@H]12 (some centres undefined),Activity,Mus musculus [1],48%
COC(=O)[C@]12CC[C@@H](C)[C@H](C)[C@H]1C1=CC[C@@H]3[C@@]4(C)C[C@@H](OC)C(=O)[C@@](C)(C=O)[C@@H]4CC[C@@]3(C)[C@]1(C)CC2,Activity,Rattus norvegicus,52.3%
CC1(C)CC[C@]2(C(=O)O[C@@H]3O[C@H](CO)[C@@H](O)[C@H](O)[C@H]3O[C@@H]3OC[C@@H](O)[C@H](O)[C@H]3O)CC[C@]3(C)C(=CC[C@@H]4[C@@]5(C)C[C@@H](O)[C@@H](O)C(C)(C)[C@@H]5CC[C@]43C)[C@@H]2[C@@H]1O,Activity,[22],68%
same,Activity,[23],68%
CC1=C(C)[C@H]2C3=CC[C@@H]4[C@@]5(C)C[C@@H](O)[C@H](O)[C@@](C)(CO)[C@@H]5CC[C@@]4(C)[C@]3(C)CC[C@@]2(C(=O)O[C@@H]2O[C@H](CO)[C@@H](O)[C@H](O)[C@H]2O)CC1,pIC50,Hepatocyte [11],4.47
same,Activity,Hepatocyte [12],8.3%
CC(=O)C[C@@H](C)[C@H]1CC[C@@]2(C)[C@@H]3C(=O)C=C4[C@@H](CC[C@@H](O)C4(C)C)[C@]3(C)CC[C@]12C,Activity,HepG2,56.9%
CC1=C2C3=CC[C@@H]4[C@@]5(C)C[C@@H](O)[C@H](O)[C@@](C)(CO)[C@@H]5[C@H](O)C[C@@]4(C)[C@]3(C)CC[C@@]2(C(=O)O[C@@H]2O[C@H](CO)[C@@H](O)[C@H](O)[C@H]2O)CC[C@H]1C [QUADRANOSIDE V],pIC50,Hepatocyte [11],4.52
same,Activity,Hepatocyte [12],67.5%
